Laboratory results reported in patent US20080306284A1, “Lipase Inhibitors” (priority 2004, published 2008).

target: T1, porcine pancreatic lipase (Sus scrofa, UniProt P00591); experiment: Lipase inhibitory activity assay (4-MUO substrate, fluorescence); format: biochemical; conditions: method of Example 1
T1 construct: purchased Sigma
T1 sequence (P00591 1-450): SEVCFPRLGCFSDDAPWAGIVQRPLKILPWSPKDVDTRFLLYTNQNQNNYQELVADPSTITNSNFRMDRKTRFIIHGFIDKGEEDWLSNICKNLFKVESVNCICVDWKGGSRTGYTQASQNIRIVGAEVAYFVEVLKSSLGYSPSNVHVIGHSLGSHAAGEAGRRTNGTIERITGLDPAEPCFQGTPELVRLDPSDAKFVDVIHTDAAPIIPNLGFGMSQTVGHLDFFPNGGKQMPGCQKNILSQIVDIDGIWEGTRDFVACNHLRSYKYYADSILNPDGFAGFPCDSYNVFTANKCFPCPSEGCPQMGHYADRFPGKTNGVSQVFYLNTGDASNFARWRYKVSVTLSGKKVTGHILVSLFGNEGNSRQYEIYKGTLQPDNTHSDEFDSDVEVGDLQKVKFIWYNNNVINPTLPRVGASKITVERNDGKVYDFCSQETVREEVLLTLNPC
Method: A lipase activity assay was performed by using the oleate ester of fluorescent 4-methylumbelliferone (4-MUO) as a substrate to measure the fluorescence of 4-methylumbelliferone produced by reaction.
The buffer used for the assay was 13 mM Tris-HCl (pH 8.0) containing 150 mM NaCl, 1.36 mM CaCl2. The enzyme assay was performed using a 0.1 M solution of the substrate 4-MUO (Sigma) in DMSO diluted 1:1000 in said buffer and a solution of porcine pancreatic lipase (Sigma) prepared at 400 U/ml also in said buffer.
An enzymatic reaction was started by adding 25 μl of the lipase/buffer solution after 50 μl of the 4-MUO/buffer solution and 25 μl of distilled water (or an aqueous solution of each sample) were added and mixed in a 96-well microplate at 25° C. After the reaction was performed for 30 minutes, the reaction was stopped by adding 100 μl of a 0.1 M citrate buffer (pH 4.2) and the fluorescence of 4-methylumbelliferone produced by the reaction (excitation 355 nm, emission 460 nm) was measured using a fluorescence plate reader (Fluoroskan Asent CF from Labsystems).
The inhibitory activity of each test sample was determined as IC50(μM), i.e. the amount of the sample giving 50% inhibition of the activity of the control (distilled water).

Compound | lipase inhibitory activity (in words)
(−)-epigallocatechin 3-O-gallate [(−)-epigallocatechin 3-O-gallate (4), reference compound] | strongest activity among the major catechins

same assay, conditions: porcine pancreatic lipase, 4-MUO substrate, 25° C., 30 minutes, pH 8.0

Compound | IC50 [nM]
O=C(O[C@@H]1Cc2c(O)cc(O)c([C@@H]3c4c(O)cc(O)cc4O[C@H](c4ccc(O)c(O)c4)[C@H]3O)c2O[C@@H]1c1cc(O)c(O)c(O)c1)c1cc(O)c(O)c(O)c1 [(+)-catechin (α + 8) (−)-epigallocatechin 3-O-gallate] | 174
Oc1cc(O)c2c(c1)O[C@H](c1cc(O)c(O)c(O)c1)[C@H](O)[C@H]2c1c(O)cc(O)c2c1O[C@H](c1cc(O)c(O)c(O)c1)[C@H](O)C2 [prodelphinidin B-2 (12), prodelphinidin B-2] | 2950
O=C(O[C@@H]1[C@@H](c2c(O)cc(O)c3c2O[C@H](c2ccc(O)c(O)c2)[C@H](OC(=O)c2cc(O)c(O)c(O)c2)C3)c2c(O)cc(O)cc2O[C@@H]1c1cc(O)c(O)c(O)c1)c1cc(O)c(O)c(O)c1 [(−)-epigallocatechin 3-O-gallate (4β − 8) (−)-epicatechin 3-O-gallate] | 612
(−)-epigallocatechin 3-O-gallate [(−)-epigallocatechin 3-O-gallate (4), reference compound] | 284
Oc1cc(O)c2c(c1)O[C@H](c1ccc(O)c(O)c1)[C@H](O)[C@H]2c1c(O)cc(O)c2c1O[C@H](c1ccc(O)c(O)c1)[C@H](O)C2 [procyanidin B-2 (9), procyanidin B-2] | 7960
(−)-epicatechin 3-O-gallate [(−)-epicatechin 3-O-gallate (2), reference compound] | 271
Oc1cc(O)c2c(c1)O[C@H](c1ccc(O)c(O)c1)[C@@H](O)[C@@H]2c1c(O)cc(O)c2c1O[C@H](c1ccc(O)c(O)c1)[C@@H](O)C2 [procyanidin B-3 (10), procyanidin B-3] | 2940
O=C(O[C@@H]1[C@@H](c2c(O)cc(O)c3c2O[C@H](c2cc(O)c(O)c(O)c2)[C@H](OC(=O)c2cc(O)c(O)c(O)c2)C3)c2c(O)cc(O)cc2O[C@@H]1c1cc(O)c(O)c(O)c1)c1cc(O)c(O)c(O)c1 [prodelphinidin B-2 3,3′-di-O-gallate] | 107
Oc1cc(O)c2c(c1)O[C@H](c1cc(O)c(O)c(O)c1)[C@@H](O)[C@@H]2c1c(O)cc(O)c2c1O[C@H](c1cc(O)c(O)c(O)c1)[C@H](O)C2 [prodelphinidin B-4 (15), prodelphinidin B-4] | 6230
Oc1cc(O)c2c(c1)O[C@H](c1cc(O)c(O)c(O)c1)[C@H](O)C2 [(−)-epigallocatechin (3), (−)-epigallocatechin, reference compound] | > 20400
Oc1cc(O)c2c(c1)O[C@H](c1ccc(O)c(O)c1)[C@H](O)C2 [(−)-epicatechin (1), (−)-epicatechin, reference compound] | > 21600
O=C(O[C@@H]1Cc2c(O)cc3c(c2O[C@@H]1c1cc(O)c(O)c(O)c1)[C@H]1c2c(O)cc(O)cc2O[C@@](c2cc(O)c(O)c(O)c2)(O3)[C@@H]1O)c1cc(O)c(O)c(O)c1 [prodelphinidin A-2 3′-O-gallate (11), prodelphinidin A-2 3′-O-gallate] | 171
Oc1cc(O)c2c(c1)O[C@H](c1cc(O)c(O)c(O)c1)[C@@H](O)C2 [(+)-gallocatechin (7), (+)-gallocatechin, reference compound] | > 163000
O=C(O[C@@H]1Cc2c(O)cc(O)c([C@H]3c4c(O)cc(O)cc4O[C@H](c4ccc(O)c(O)c4)[C@@H]3O)c2O[C@@H]1c1cc(O)c(O)c(O)c1)c1cc(O)c(O)c(O)c1 [(−)-epicatechin (4β − 8) (−)-epigallocatechin 3-O-gallate] | 147
Oc1cc(O)c2c(c1)O[C@H](c1cc(O)c(O)c(O)c1)[C@@H](O)[C@@H]2c1c(O)cc(O)c2c1O[C@H](c1ccc(O)c(O)c1)[C@H](O)C2 [(+)-gallocatechin (4α − 8) (−)-epicatechin] | 2860
Oc1cc(O)c2c(c1)OC(c1ccc(O)c(O)c1)C(O)C2 (single isomer, unassigned; (+)) [(+)-catechin (5), (+)-catechin, reference compound] | > 690000
O=C(O[C@@H]1Cc2c(O)cc(O)cc2O[C@H]1c1ccc(O)c(O)c1)c1cc(O)c(O)c(O)c1 [(−)-catechin 3-O-gallate (6), (−)-catechin 3-O-gallate, reference compound] | 846
Oc1cc(O)c2c(c1)O[C@H](c1ccc(O)c(O)c1)[C@@H](O)[C@@H]2c1c(O)cc(O)c2c1O[C@H](c1cc(O)c(O)c(O)c1)[C@H](O)C2 [(+)-catechin (4α − 8) (−)-epigallocatechin] | 7910
O=C(O[C@@H]1Cc2c(O)cc(O)cc2O[C@H]1c1cc(O)c(O)c(O)c1)c1cc(O)c(O)c(O)c1 [(−)-gallocatechin 3-O-gallate (8), (−)-gallocatechin 3-O-gallate, reference compound] | 349
O=C(O[C@@H]1[C@@H](c2c(O)cc(O)c3c2O[C@H](c2cc(O)c(O)c(O)c2)[C@H](OC(=O)c2cc(O)c(O)c(O)c2)C3)c2c(O)cc(O)cc2O[C@@H]1c1ccc(O)c(O)c1)c1cc(O)c(O)c(O)c1 [(−)-epicatechin 3-O-gallate (4β − 8) (−)-epigallocatechin 3-O-gallate] | 846
O=C(O[C@@H]1Cc2c(O)cc(O)c([C@@H]3c4c(O)cc(O)cc4O[C@H](c4cc(O)c(O)c(O)c4)[C@H]3O)c2O[C@@H]1c1cc(O)c(O)c(O)c1)c1cc(O)c(O)c(O)c1 [prodelphinidin B-4 3′-O-gallate (16), prodelphinidin B-4 3′-O-gallate] | 223
O=C(O[C@@H]1Cc2c(O)cc(O)c([C@H]3c4c(O)cc(O)cc4O[C@H](c4cc(O)c(O)c(O)c4)[C@@H]3O)c2O[C@@H]1c1ccc(O)c(O)c1)c1cc(O)c(O)c(O)c1 [(−)-epigallocatechin (4β − 8) (−)-epicatechin 3-O-gallate] | 913
prodelphinidin B-5 3,3′-di-O-gallate | 558
O=C(OC1Cc2c(O)cc(O)c(C3c4c(O)cc(O)cc4OC(c4cc(O)c(O)c(O)c4)C3O)c2OC1c1cc(O)c(O)c(O)c1)c1cc(O)c(O)c(O)c1 (stereo not drawn) [prodelphinidin B-2 3′-O-gallate (13), prodelphinidin B-2 3′-O-gallate] | 1970

tested on: not given; experiment: not given; conditions: reported in the literature; cited from earlier work

Compound | adverse side effects
OC1(c2ccc(Cl)cc2)c2ccccc2C2=NCCN21 (stereo not drawn) [Mazindol] | dry mouth, constipation, stomach discomfort and nausea/vomiting
CCCCCCCCCCC[C@@H](C[C@@H]1OC(=O)[C@H]1CCCCCC)OC(=O)[C@H](CC(C)C)NC=O [Xenical] | fatty stools, increased stool frequency, loose stools, diarrhea and abdominal pain
